From patent US11897880B2, “7,8-dihydrobenzo[e]pyrido[3,4-c]azocine-2,5(3H,6H)-dione derivatives useful as a factor XIa inhibitors” (Janssen Pharmaceutica NV, priority 2021, dated 2024)
Read-outs that look alike come from different tables or passages of the source.

Experiments:
Factor XIa = Factor XIa (Homo sapiens, UniProt P03951); test: Factor XIa inhibition assay utilizing a fluorophore-quencher pair peptide substrate (FLINT); type: biochemical; conditions: for IC50: read-out: FXIa IC50; for Ki: read-out: FXIa Ki
Sequence of Factor XIa (P03951 388-625 limits assumed): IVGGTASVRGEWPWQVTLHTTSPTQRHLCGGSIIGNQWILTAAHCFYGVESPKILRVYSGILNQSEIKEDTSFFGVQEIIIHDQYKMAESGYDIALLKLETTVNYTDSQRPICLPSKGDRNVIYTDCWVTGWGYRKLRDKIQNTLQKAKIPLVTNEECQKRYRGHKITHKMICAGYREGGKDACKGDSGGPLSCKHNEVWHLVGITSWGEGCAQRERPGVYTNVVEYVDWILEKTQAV
Sequence of Factor XIa (P03951 19-387 partner limits assumed): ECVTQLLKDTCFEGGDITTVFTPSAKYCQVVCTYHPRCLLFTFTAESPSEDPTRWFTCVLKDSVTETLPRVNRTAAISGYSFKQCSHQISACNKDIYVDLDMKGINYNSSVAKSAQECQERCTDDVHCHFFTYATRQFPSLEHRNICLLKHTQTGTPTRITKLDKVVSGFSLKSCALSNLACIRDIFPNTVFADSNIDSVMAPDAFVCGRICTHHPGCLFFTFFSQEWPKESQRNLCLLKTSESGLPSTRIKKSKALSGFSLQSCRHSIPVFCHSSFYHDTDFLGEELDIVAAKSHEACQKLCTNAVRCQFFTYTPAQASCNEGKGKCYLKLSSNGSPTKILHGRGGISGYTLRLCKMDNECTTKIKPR
Text: Biological Example 1: Factor XIa Inhibition Assay Utilizing a Fluorophore-Quencher Pair Peptide Substrate
A fluorescence intensity (FLINT) based assay was used to monitor inhibition of Factor XIa. The peptide substrate, 5Fam-KLTRAETV-K5Tamra (purchased from New England Peptide) was chosen based on the FXI sequence. Conversion of zymogen FXI to its activated form, FXIa, occurs by proteolytic cleavage by […] at two sites, Arg146 and Arg180. The custom peptide used in this assay was based on the Arg146 cleavage site of FXI. The peptide substrate was designed with a fluorophore-quencher pair, where the fluorescence is quenched until FXIa cleaves the 8-mer peptide after the Arg residue.
The Factor XIa FLINT assay was used with the following 5Fam-KLTRAETV-K5Tamra assay buffer: 50 mM Tris, pH 7.5, 100 mM NaCl, 5 mM CaCl2), 0.1 mg/mL BSA, 0.03% CHAPS. Assay buffer was prepared by mixing all ingredients fresh. 5Fam-KLTRAETV-K5Tamra peptide substrate was first prepared at 10 mM in 100% DMSO, then diluted to 3 mM in 100% DMSO. Assay buffer was then added directly to the 3 mM stock of substrate to prepare the 30 μM 2× working concentration (15 μM final concentration). The 2× Factor XIa stock solution was prepared by diluting 6.562 μM stock in 1× assay buffer for a […].
Test compound(s) were run in an 11-point, 3-fold serial dilution with a final top compound concentration of 100 nM. Final DMSO in assay was 2%. FXIa was preincubated with compound for 30-minutes and then substrate was added to initiate the reaction. The assay was run with kinetic (KIN) reads at 5 min intervals over 30 minutes. The time course was linear using […] FXIa greater than 30 minutes. More specifically, the assay was run as follows: • 100 nL of 0.01 mM test compound was dispensed into black 384-well non-binding Greiner BioOne 784900 plate for 0.1 μM final concentration; • 5 μL of 1× assay buffer was dispensed to column 24 (low control) and 5 μL 2× Factor XIa solution was dispensed to columns 1-23 (column 23 high control); • the plate was centrifuged with a “cover” plate at 500 rpm for 1 min • the plate was pre-incubated for 30 minutes at room temperature with plate covered; • 5 μL of 2×5Fam-KLTRAETV-K5Tamra peptide substrate was dispensed into the entire plate, columns 1-24; • the plate was centrifuged with a “cover” plate at 500 rpm for 1 min; • the plate was read monitoring fluorescence intensity on the BMG PHERAStar at room temperature, using fluorescence module 485 nm/520 nm.
Percent inhibition (IC50) curves were generated per compound tested, and data was analyzed using a 4-parameter logistic fit using GeneData Screener. The relative fluorescence unit (RFU) values were normalized to percent inhibition using the following equation: % inhibition=((HC−LC)−(compound−LC)/(HC−LC))*100
where LC−low control=mean signal of no Factor XIa or 100% inhibition of Factor XIa; HC−high control=mean signal of Factor XIa+5Fam-KLTRAETV-K5Tamra peptide substrate with DMSO only.
An 11-point dose response curve for the test compound(s) was generated using GENDATA to determine IC50 value based on the following equation: Y=Bottom+(Top−Bottom)/(1+10^((log IC50−X)*HillSlope))
where Y is the % inhibition in the presence of X inhibitor concentration, Top=high control=mean signal of Factor XIa+5Fam-KLTRAETV-K5Tamra peptide substrate with DMSO only; Bottom=low control−mean signal of no Factor XIa or 100% inhibition of Factor XIa; HillSlope−Hill coefficient; and IC50=concentration of compound with 50% inhibition in relation to top/high control.
(§1) Representative compounds of formula (I) of the present invention were tested according to the procedure described in Biological Example 1 and Biological Example 2 above, with results as listed in Table 3, below.

human plasma kallikrein = human plasma kallikrein (Homo sapiens, UniProt P03952); test: Kallikrein inhibition assay utilizing a quenched AMC peptide substrate (FLINT); type: biochemical; conditions: 30 min preincubation, 50 μM Z-Gly-Pro-Arg-AMC, 2 nM kallikrein
Sequence of human plasma kallikrein (P03952 391-638 limits assumed): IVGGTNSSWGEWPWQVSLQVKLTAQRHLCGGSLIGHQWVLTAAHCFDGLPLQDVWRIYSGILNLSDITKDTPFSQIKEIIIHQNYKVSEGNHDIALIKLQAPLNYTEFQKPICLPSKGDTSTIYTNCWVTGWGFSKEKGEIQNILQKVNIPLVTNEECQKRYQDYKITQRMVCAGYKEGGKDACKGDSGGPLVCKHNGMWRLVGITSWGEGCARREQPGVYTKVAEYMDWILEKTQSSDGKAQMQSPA
Sequence of human plasma kallikrein (P03952 20-390 partner limits assumed): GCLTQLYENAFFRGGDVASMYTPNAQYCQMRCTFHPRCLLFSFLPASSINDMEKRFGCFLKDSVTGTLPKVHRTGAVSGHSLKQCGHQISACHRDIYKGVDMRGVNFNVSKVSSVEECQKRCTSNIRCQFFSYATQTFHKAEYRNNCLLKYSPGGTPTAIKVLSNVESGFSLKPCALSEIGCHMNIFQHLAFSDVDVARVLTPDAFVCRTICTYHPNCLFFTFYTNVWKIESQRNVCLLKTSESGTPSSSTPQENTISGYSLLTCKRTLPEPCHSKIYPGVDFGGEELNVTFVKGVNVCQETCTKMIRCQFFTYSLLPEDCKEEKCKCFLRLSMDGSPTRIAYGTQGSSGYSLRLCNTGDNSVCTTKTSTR
Text: Biological Example 2: Kallikrein Inhibition Assay Utilizing a Quenched AMC Peptide Substrate
A fluorescence intensity (FLINT) based assay was used to monitor inhibition of human plasma kallikrein. The peptide substrate, Z-Gly-Pro-Arg-AMC (Purchased from Bachem; Catalog #1-1150) was chosen based on its relatively low KM for kallikrein which enables running the assay at lower substrate concentrations to control background fluorescence.
The Kallikrein FLINT assay was used with the following Z-Gly-Pro-Arg-AMC assay buffer: 50 mM Tris, pH 7.5, 100 mM NaCl, 5 mM CaCl2), 0.1 mg/mL BSA, 0.03% CHAPS. Assay buffer was prepared by mixing all ingredients fresh. 2× Z-Gly-Pro-Arg-AMC peptide substrate was prepared by diluting 10 mM stock into 1× assay buffer for a 100 μM working concentration (50 μM final concentration). The 2× kallikrein stock solution was prepared by diluting 14.76 μM stock in 1× assay buffer for a 4 nM working stock solution (2 nM final concentration).
Test compound(s) were run in an 11-point, 3-fold serial dilution with a final top compound concentration of 1 μM. Final DMSO in assay was 2%. Plasma kallikrein was pre-incubated for 30-minute with compound and then 50 μM substrate was added to initiate the reaction. The assay was run with kinetic (KIN) reads at 5 min intervals over 30 minutes. The time course was linear using 2 nM kallikrein greater than 30 minutes. More specifically, the assay was run as follows: • 100 nL of 0.1 mM test compound was dispensed into black 384-well non-binding Greiner BioOne 784900 plate for 1 μM final concentration; • 5 μL of 1× assay buffer was dispensed to columns 24 (low control) and 5 μL 2× human kallikrein enzyme solution was dispensed to columns 1-23 (column 23 high control); • the plate was centrifuged with a “cover” plate at 500 rpm for 1 min • the plate was pre-incubated for 30 minutes at room temperature with plate covered; • 5 μL of 2× Z-Gly-Pro-Arg-AMC peptide substrate was dispensed into the entire plate, columns 1-24; • the plate was centrifuged with a “cover” plate at 500 rpm for 1 min; the plate was read monitoring fluorescence intensity on the BMG PHERAStar at room temperature, using fluorescence module 340 nm/440 nm.
Percent inhibition (IC50) curves were generated per compound tested, and data was analyzed using a 4-parameter logistic fit using GeneData Screener. The relative fluorescence unit (RFU) values were normalized to percent inhibition using the following equation: % inhibition=((HC−LC)−(compound−LC)/(HC−LC))*100 where LC—low control=mean signal of human kallikrein enzyme or 100% inhibition of human kallikrein enzyme; HC—high control=mean signal of […]+Z-Gly-Pro-Arg-AMC peptide substrate with DMSO only.
An 11-point dose response curve for the test compound(s) was generated using GENDATA to determine IC50 value based on the following equation: Y=Bottom+(Top−Bottom)/(1+10^((log IC50−X)*HillSlope)) • where Y is the % inhibition in the presence of X inhibitor concentration, Top=high control=mean signal of human kallikrein enzyme+Z-Gly-Pro-Arg-AMC peptide substrate with DMSO only; Bottom=low control−mean signal of no human kallikrein enzyme or 100% inhibition of human kallikrein enzyme; HillSlope—Hill coefficient; and IC50=concentration of compound with 50% inhibition in relation to top/high control.
as §1

[1] = 30 min preincubation, 5Fam-KLTRAETV-K5Tamra substrate 15 μM final, kinetic reads
[2] = cells that print μM themselves in the nM column
[3] = cells that print μM themselves in the nM column, same assay conditions

IC50 (Factor XIa; [1]) [µM] | Ki (Factor XIa) [µM] | IC50 (human plasma kallikrein) [µM] | Ki (Factor XIa; [2]) [µM] | IC50 (Factor XIa; [3]) [µM] | SMILES
0.882 | 0.441 | > 10 | – | – | O=C1NC2(CC2)Cc2ccc(Cl)c(F)c2-c2cc(=O)n(C(CC3CC3)c3ncc(-c4cc[n+]([O-])cc4)[nH]3)cc21 (single isomer, unassigned) [Compound 56, (S*)-4-(2-(1-(11-chloro-12-fluoro-2,5-dioxo-2,5,6,8-tetrahydro-3H-spiro[benzo[e]pyrido[3,4-c]azocine-7,1′-cyclopropan]-3-yl)-2-cyclopropylethyl)-1H-imidazol-5-yl)pyridine 1-oxide]
– | – | > 10 | 4.84 | 9.69 | O=C1NC2(CC2)Cc2ccc(Cl)c(F)c2-c2cc(=O)n(C(CC3CC3)c3ncc(-c4cc[n+]([O-])cc4)[nH]3)cc21 (single isomer, unassigned) [Compound 57, (R*)-4-(2-(1-(11-chloro-12-fluoro-2,5-dioxo-2,5,6,8-tetrahydro-3H-spiro[benzo[e]pyrido[3,4-c]azocine-7,1′-cyclopropan]-3-yl)-2-cyclopropylethyl)-1H-imidazol-5-yl)pyridine 1-oxide]
– | – | > 10 | > 5 | > 10 | Cn1ncc(-c2cnc(C(CC3CC3)n3cc4c(cc3=O)-c3c(ccc(Cl)c3F)CC3(CC3)NC4=O)[nH]2)cc1=O (single isomer, unassigned) [Compound 58, (R*)-11-chloro-3-(2-cyclopropyl-1-(5-(1-methyl-6-oxo-1,6-dihydropyridazin-4-yl)-1H-imidazol-2-yl)ethyl)-12-fluoro-3H-spiro[benzo[e]pyrido[3,4-c]azocine-7,1′-cyclopropane]-2,5(6H,8H)-dione]
– | – | > 10 | 2.19 | 4.39 | Cn1ncc(-c2cnc(C(CC3CC3)n3cc4c(cc3=O)-c3c(ccc(Cl)c3F)CC3(CC3)NC4=O)[nH]2)cc1=O (single isomer, unassigned) [Compound 59, (S*)-11-chloro-3-(2-cyclopropyl-1-(5-(1-methyl-6-oxo-1,6-dihydropyridazin-4-yl)-1H-imidazol-2-yl)ethyl)-12-fluoro-3H-spiro[benzo[e]pyrido[3,4-c]azocine-7,1′-cyclopropane]-2,5(6H,8H)-dione]
– | – | > 10 | ~4.81 | ~9.61 | Cn1cc(-c2cnc(C(CC3CC3)n3cc4c(cc3=O)-c3c(ccc(Cl)c3F)CC3(CC3)NC4=O)[nH]2)ccc1=O (single isomer, unassigned) [Compound 60, (R*)-11-chloro-3-(2-cyclopropyl-1-(5-(1-methyl-6-oxo-1,6-dihydropyridin-3-yl)-1H-imidazol-2-yl)ethyl)-12-fluoro-3H-spiro[benzo[e]pyrido[3,4-c]azocine-7,1′-cyclopropane]-2,5(6H,8H)-dione]
0.0486 | 0.0243 | 5.37 | – | – | COC(=O)Nc1ccc(-c2cnc(C(CC3CC3)n3cc4c(cc3=O)-c3c(ccc(Cl)c3F)CC3(CC3)NC4=O)[nH]2)cc1 (single isomer, unassigned) [Compound 62, Methyl (R*)-(4-(2-(1-(11-chloro-12-fluoro-2,5-dioxo-2,5,6,8-tetrahydro-3H-spiro[benzo[e]pyrido[3,4-c]azocine-7,1′-cyclopropan]-3-yl)-2-cyclopropylethyl)-1H-imidazol-5-yl)phenyl)carbamate]
– | 0.578 | > 10 | – | 1.16 | Cn1cc(-c2cnc(C(CC3CC3)n3cc4c(cc3=O)-c3c(ccc(Cl)c3F)CC3(CC3)NC4=O)[nH]2)ccc1=O (single isomer, unassigned) [Compound 63, (S*)-11-chloro-3-(2-cyclopropyl-1-(5-(1-methyl-6-oxo-1,6-dihydropyridin-3-yl)-1H-imidazol-2-yl)ethyl)-12-fluoro-3H-spiro[benzo[e]pyrido[3,4-c]azocine-7,1′-cyclopropan]-2,5(6H,8H)-dione]
– | 0.564 | > 10 | – | 1.13 | O=C1NC2(CC2)Cc2ccc(Cl)c(F)c2-c2cc(=O)n(C(CC3CC3)c3ncc(-c4ccc(F)cc4)[nH]3)cc21 (single isomer, unassigned) [Compound 64, (R*)-11-chloro-3-(2-cyclopropyl-1-(5-(4-fluorophenyl)-1H-imidazol-2-yl)ethyl)-12-fluoro-3H-spiro[benzo[e]pyrido[3,4-c]azocine-7,1′-cyclopropane]-2,5(6H,8H)-dione]
0.102 | 0.0508 | 5.72 | – | – | O=C1NC2(CC2)Cc2ccc(Cl)c(F)c2-c2cc(=O)n(C(CC3CC3)c3ncc(-c4ccc(F)cc4)[nH]3)cc21 (single isomer, unassigned) [Compound 65, (S*)-11-chloro-3-(2-cyclopropyl-1-(5-(4-fluorophenyl)-1H-imidazol-2-yl)ethyl)-12-fluoro-3H-spiro[benzo[e]pyrido[3,4-c]azocine-7,1′-cyclopropane]-2,5(6H,8H)-dione]
